Reference: US20230012368A1 (Hoffmann-La Roche Inc., priority 2018, published 2023)
Structures can show the parent of a compound that is named as a salt.

System: Acinetobacter baumannii ATCC 17978
Experiment: Antimicrobial susceptibility testing: 90% growth inhibitory concentration (IC90) determination
Type: cell-based
Settings: Acinetobacter baumannii, ATCC17978, 16 h, 90% growth inhibitory concentration; Acinetobacter baumannii ATCC17978; Iso-Sensitest broth, OD 600 nm over 16h; read-out: ATCC17978 IC90
Description: Antimicrobial Susceptibility Testing:
90% Growth Inhibitory Concentration (IC90) Determination
The in vitro antimicrobial activity of the compounds was determined according to the following procedure:
The assay used a 10-points Iso-Sensitest broth medium to measure quantitatively the in vitro activity of the compounds against Acinetobacter baumannii ATCC 17978 and Acinetobacter baumannii ATCC 17961.
Stock compounds in DMSO were serially twofold diluted (e.g. range from 50 to 0.097 μM final concentration) in 384 wells microtiter plates and inoculated with 49 μl the bacterial suspension in Iso-Sensitest medium to have a final cell concentration of ˜5×10^(5) CFU/ml in a final volume/well of 50 ul/well. Microtiter plates were incubated at 35±2° C.
Bacterial cell growth was determined with the measurement of optical density at λ=600 nm each 20 minutes over a time course of 16h. Growth inhibition was calculated during the logarithmic growth of the bacterial cells with determination of the concentration inhibiting 50% (IC50) and 90% (IC90) of the growth.
Table 1 provides the 90% growth inhibitory concentrations (IC90) in micromoles per liter of the compounds of present invention obtained against the strain Acinetobacter baumannii ATCC17978 and Acinetobacter baumannii ATCC17961.

Structure (SMILES) | IC90 [nM]
COc1ccc(-c2cnc3c(Nc4ccc(C(=O)NCCCN)c(CC(F)F)c4)nccn23)c(F)c1F [Example 316, N-(3-aminopropyl)-2-(2,2-difluoroethyl)-4-[[3-(2,3-difluoro-4-methoxyphenyl)imidazo[1,2-a]pyrazin-8-yl]amino]benzamide;formic acid] | 2100
CCc1cc(Nc2nccn3c(-c4ccc(OC(F)F)c(F)c4F)cnc23)ccc1C(=O)NCCNC(=O)CN(C)C [Example 294, 4-[[3-[4-(difluoromethoxy)-2,3-difluorophenyl]imidazo[1,2-a]pyrazin-8-yl]amino]-N-[2-[[2-(dimethylamino)acetyl]amino]ethyl]-2-ethylbenzamide] | 140
Cc1cc(Nc2nccn3c(-c4ccc(Cl)cc4)cnc23)ccc1C(=O)NCCC1CCN(C)CC1 [Example 186, 4-[[3-(4-chlorophenyl)imidazo[1,2-a]pyrazin-8-yl]amino]-2-methyl-N-[2-(1-methylpiperidin-4-yl)ethyl]benzamide] | 260
Cc1cc(Nc2nccn3c(-c4ccc(OC(F)F)cc4)cnc23)ccc1C(=O)N(C)CC(=O)N(C)CC(=O)N1CCN(C)CC1 [Example 171, 4-[[3-[4-(difluoromethoxy)phenyl]im-idazo[1,2-a]pyrazin-8-yl]amino]-N,2-dimethyl-N-[2-[methyl-[2-(4-methylpiperazin-1-yl)-2-oxoethyl]amino]-2-oxoethyl]benzamide] | 3600
CNC(=O)c1ccc(Nc2nccn3c(-c4ccc(OC(F)F)cc4)cnc23)cc1C1CC1 [Example 167, 2-cyclopropyl-4-[[3-[4-(difluoromethoxy)phenyl]imidazo[1,2-a]pyrazin-8-yl]amino]-N-methyl-benzamide] | 1100
Cc1cc(Nc2nccn3c(-c4ccc(Cl)c(F)c4F)cnc23)ccc1C(=O)N(C)CCCN [Example 228, N-(3-aminopropyl)-4-[[3-(4-chloro-2,3-difluorophenyl)imidazo[1,2-a]pyrazin-8-yl]amino]-N,2-dimethylbenzamide;hydrochlo-ride] | 1200
CCc1cc(Nc2nccn3c(-c4ccc(OC)c(F)c4F)cnc23)ccc1C(=O)N[C@@H](C)C(=O)NCCNC [Example 567, 4-[[3-(2,3-difluoro-4-methoxy-phenyl)imidazo[1,2-a]pyrazin-8-yl]amino]-2-ethyl-N-[(1S)-1-methyl-2-[2-(methylamino)ethylamino]-2-oxo-ethyl]benzamide] | 650
COc1ccc(-c2cnc3c(Nc4ccc(C(=O)N(C)CCN(C)C)c(C)c4)nccn23)cc1 [Example 18, N-(2-(dimethylamino)ethyl)-4-((3-(4-methoxyphenyl)imidazo [1,2-a]pyrazin-8-yl)amino)-N,2-dimethylbenzamide] | 2200
COc1ccc(-c2cnc3c(Nc4ccc(C(=O)NCCN5CCNCC5)c(C)c4)nccn23)cc1F [Example 199, 4-[[3-(3-fluoro-4-methoxyphenyl)imidazo[1,2-a]pyrazin-8-yl]amino]-2-methyl-N-(2-piperazin-1-ylethyl)benzamide;hydrochlo-ride] | 420
Cc1cc(Nc2nccn3c(-c4ccc(OC(F)F)cc4)cnc23)ccc1C(=O)NCC1CCN(C)CC1 [Example 198, 4-[[3-[4-(difluoromethoxy)phenyl]im-idazo[1,2-a]pyrazin-8-yl]amino]-2-methyl-N-[(1-methylpiperidin-4-yl)methyl]benzamide] | 720
COc1ccc(-c2cnc3c(Nc4ccc(C(=O)NCCCCN)c(C)c4)nccn23)cc1 [Example 194, N-(4-aminobutyl)-4-[[3-(4-methoxyphenyl)imidazo[1,2-a]pyrazin-8-yl]amino]-2-methylbenzamide;hydrochlo-ride] | 360
Cc1cc(Nc2nccn3c(-c4ccc(OC(F)F)cc4)cnc23)ccc1C(=O)N(C)CCCCN1CCOCC1 [Example 208, 4-[[3-[4-(difluoromethoxy)phenyl]im-idazo[1,2-a]pyrazin-8-yl]amino]-N,2-dimethyl-N-(4-morpholin-4-ylbutyl)benzamide] | 580
Cc1cc(Nc2nccn3c(-c4ccc(OC(F)F)cc4)cnc23)ccc1C(=O)N(C)CCCN1CCCCC1 [Example 257, 4-[[3-[4-(difluoromethoxy)phenyl]im-idazo[1,2-a]pyrazin-8-yl]amino]-N,2-dimethyl-N-(3-piperidin-1-ylpropyl)benzamide] | 3600
COc1ccc(-c2cnc3c(Nc4ccc(C(=O)NCCCCCNC(=O)OC(C)(C)C)c(C)c4)nccn23)cc1 [Example 223, tert-butyl N-[5-[[4-[[3-(4-methoxyphenyl)imidazo[1,2-a]pyrazin-8-yl]amino]-2-methylbenzoyl]amino]pentyl] carbamate] | 1100
CCc1cc(Nc2nccn3c(-c4ccc(Oc5ccc(OC)cn5)c(F)c4F)cnc23)ccc1C(=O)NCCNC(=O)[C@@H](N)CCNC(=N)N [Example 449, N-[2-[[(2S)-2-amino-4-guanidino-butanoyl]amino]ethyl]-4-[[3-[2,3-difluoro-4-[(5-methoxy-2-pyridyl)oxy]phenyl]imidazo [1,2-a]pyrazin-8-yl]amino]-2-ethyl-benzamide; formic acid] | 530
COc1ccc(-c2cnc3c(Nc4cc(C)c(C(=O)NCCCN)c(F)c4)nccn23)c(F)c1F [Example 427, N-(3-aminopropyl)-4-((3-(2,3-difluoro-4-methoxyphenyl)imidazo[1,2-a]pyrazin-8-yl)amino)-2-fluoro-6-methylbenzamide formate] | 690
CCc1cc(Nc2nccn3c(-c4ccc(OC)c(F)c4F)cnc23)ccc1C(=O)NC(C)CNC(C)=N (stereo not drawn) [Example 169, 4-[[3-(2,3-difluoro-4-methoxyphenyl)imidazo[1,2-a]pyrazin-8-yl]amino]-N-[1-(ethanimidoylamino)propan-2-yl]-2-ethylbenzamide] | 70
COc1ccc(-c2cnc3c(Nc4ccc(C(=O)NCCCN)c(C)c4)nccn23)cc1 [Example 51, N-(3-aminopropyl)-4-((3-(4-methoxyphenyl)imidazo [1,2-a]pyrazin-8-yl)amino)-2-methylbenzamide hydrochloride] | 960
CCc1cc(Nc2nccn3c(-c4ccc(OC)c(F)c4F)cnc23)ccc1C(=O)NCC(C)CNC(=O)[C@@H](N)CNC(=N)N (mixture of isomers) [Example 408, rac-N-(3-((R)-2-amino-3-guanidinopropanamido)-2-methylpropyl)-4-((3-(2,3-difluoro-4-methoxyphenyl)imidazo[1,2-a]pyrazin-8-yl)amino)-2-ethylbenzamide diformate] | 410
COc1ccc(-c2cnc3c(Nc4ccc(C(=N)NCC(N)=O)c(C)c4)nccn23)cc1 [Example 17] | 550
CCc1cc(Nc2nccn3c(-c4ccc(OC)c(F)c4F)cnc23)ccc1C(=O)NCC1CCN(C(C)(C)C(=O)O)CC1 [Example 562, 2-(4-((4-((3-(2,3-difluoro-4-methoxyphenyl)imidazo[1,2-a]pyrazin-8-yl)amino)-2-ethylbenzamido)methyl)piper-idin-1-yl)-2-methylpropanoic acid compound with formic acid] | 320
CCc1cc(Nc2nccn3c(-c4ccc(OC(F)F)cc4)cnc23)ccc1C(=O)N(C)CCN1CCNCC1 [Example 224, 4-[[3-[4-(difluoromethoxy)phenyl]im-idazo[1,2-a]pyrazin-8-yl]amino]-2-ethyl-N-methyl-N-(2-piperazin-1-ylethyl)benzamide;hydrochlo-ride] | 1100
CN(CCCn1c(=O)c(=O)[nH]n(C)c1=S)C(=O)c1ccc(Nc2nccn3c(-c4ccc(OCC#N)c(F)c4F)cnc23)cc1Cl [Example 396, 2-chloro-4-((3-(4-(cyanomethoxy)-2,3-difluorophenyl)imidazo[1,2-a]pyrazin-8-yl)amino)-N-methyl-N-(3-(2-methyl-5,6-dioxo-3-thioxo-1,2,4-triazinan-4-yl)propyl)benzamide] | 570
Cc1cc(Nc2nccn3c(-c4ccc(OCC#CCN)c(F)c4)cnc23)ccc1C(=O)N(C)C [Example 313, 4-[[3-[4-(4-aminobut-2-ynoxy)-3-fluorophenyl]imidazo[1,2-a]pyrazin-8-yl]amino]-N,N,2-trimethylbenzamide] | 1200
COc1ccc(-c2cnc3c(Nc4ccc(C(=O)N(C)CCN)c(C)c4)nccn23)cc1 [Example 32, N-(2-aminoethyl)-4-((3-(4-methoxyphenyl)imidazo [1,2-a]pyrazin-8-yl)amino)-N,2-dimethylbenzamide] | 1700
CCc1cc(Nc2nccn3c(-c4ccc(OC)c(F)c4F)cnc23)ccc1C(=O)NCCCO[C@@H]1O[C@H](CO)[C@H](O)[C@H](O)[C@H]1N [Example 520, N-[3-[(2R,3R,4R,5R,6R)-3-amino-4,5-dihydroxy-6-(hydroxymethyl)oxan-2-yl]oxypropyl]-4-[[3-(2,3-difluoro-4-methoxyphenyl)imidazo[1,2-a]pyrazin-8-yl]amino]-2-ethylbenzamide;formic acid] | 110
COc1ccc(-c2cnc3c(Nc4ccc(C(=O)N(C)CC5CCNCC5)c(C)c4)nccn23)cc1F [Example 210, 4-[[3-(3-fluoro-4-methoxyphenyl)imidazo[1,2-a]pyrazin-8-yl]amino]-N,2-dimethyl-N-(piperidin-4-ylmethyl)benzamide;hydrochlo-ride] | 630
